# Experimental data as given in ChEMBL document CHEMBL3885881, “DrugMatrix”.
# Species on record: Rattus norvegicus
# Experiment: DrugMatrix - Regimen: Daily Repeat
# Type: toxicity, organism-based, Sprague-Dawley
# Design: regimen Daily Repeat, gender Male, age 6-8 weeks
# Conditions: in vivo, iv, vehicle 100 % SALINE; for ABSOLUTE BASOPHIL / ABSOLUTE EOSINOPHIL / ABSOLUTE LYMPHOCYTE / ABSOLUTE MONOCYTE / ABSOLUTE SEGMENTED NEUTROPHIL / BASOPHIL / EOSINOPHIL / ERYTHROCYTE COUNT / HEMATOCRIT / HEMOGLOBIN / LEUKOCYTE COUNT / LYMPHOCYTE / MEAN CORPUSCULAR HEMOGLOBIN / MEAN CORPUSCULAR HEMOGLOBIN CONCENTRATION / MEAN CORPUSCULAR VOLUME / MONOCYTE / NEUTROPHIL / NUCLEATED RED BLOOD CELLS / PLATELET COUNT: tissue Blood; for ALANINE AMINOTRANSFERASE / ALBUMIN / ALKALINE PHOSPHATASE / ASPARTATE AMINOTRANSFERASE / BLOOD UREA NITROGEN / CARBON DIOXIDE / CHLORIDE / CHOLESTEROL / CREATINE PHOSPHOKINASE / CREATININE / GLUCOSE / LACTATE DEHYDROGENASE / LIPASE / PHOSPHORUS / POTASSIUM / SODIUM / TOTAL BILIRUBIN / TOTAL PROTEIN: tissue Plasma
# [1] = 1 mg/kg, 72 h, dose level Low, time 3 day
# [2] = 1 mg/kg, 120 h, dose level Low, time 5 day
# [3] = 76 mg/kg, 72 h, dose level High, time 3 day
# [4] = 76 mg/kg, 120 h, dose level High, time 5 day
compound,measurement,setting,value
C=CCN1CC[C@]23c4c5ccc(O)c4O[C@H]2C(=O)CC[C@@]3(O)[C@H]1C5 [NALOXONE],ABSOLUTE BASOPHIL,[1],0 CELLS/uL
same,ABSOLUTE EOSINOPHIL,[1],394 CELLS/uL
same,ABSOLUTE LYMPHOCYTE,[1],14212 CELLS/uL
same,ABSOLUTE MONOCYTE,[1],229.67 CELLS/uL
same,ABSOLUTE SEGMENTED NEUTROPHIL,[1],1597.67 CELLS/uL
same,BASOPHIL,[1],0%
same,EOSINOPHIL,[1],2.33%
same,ERYTHROCYTE COUNT,[1],5.29 x10E6/uL
same,HEMATOCRIT,[1],33.37%
same,HEMOGLOBIN,[1],12.43 G/DL
same,LEUKOCYTE COUNT,[1],16.43 x10E3/uL
same,LYMPHOCYTE,[1],86.33%
same,MEAN CORPUSCULAR HEMOGLOBIN,[1],23.5 pg
same,MEAN CORPUSCULAR HEMOGLOBIN CONCENTRATION,[1],37.23 G/DL
same,MEAN CORPUSCULAR VOLUME,[1],63.13 fL
same,MONOCYTE,[1],1.33%
same,NEUTROPHIL,[1],10%
same,NUCLEATED RED BLOOD CELLS,[1],0 /100WBC
same,PLATELET COUNT,[1],1087.33 x10E3/uL
same,ALANINE AMINOTRANSFERASE,[1],52 u/L
same,ALBUMIN,[1],4.2 G/DL
same,ALKALINE PHOSPHATASE,[1],368.67 u/L
same,ASPARTATE AMINOTRANSFERASE,[1],96 u/L
same,BLOOD UREA NITROGEN,[1],16.33 mg/dL
same,CARBON DIOXIDE,[1],26.67 mmol/L
same,CHLORIDE,[1],103.67 MEQ/L
same,CHOLESTEROL,[1],70.67 mg/dL
same,CREATINE PHOSPHOKINASE,[1],678.67 u/L
same,CREATININE,[1],0.2 mg/dL
same,GLUCOSE,[1],178.33 mg/dL
same,LACTATE DEHYDROGENASE,[1],116.67 u/L
same,LIPASE,[1],9.67 u/L
same,PHOSPHORUS,[1],12.63 mg/dL
same,POTASSIUM,[1],6.32 MEQ/L
same,SODIUM,[1],144.23 MEQ/L
same,TOTAL BILIRUBIN,[1],0.2 mg/dL
same,TOTAL PROTEIN,[1],5.9 G/DL
same,ABSOLUTE BASOPHIL,[2],0 CELLS/uL
same,ABSOLUTE EOSINOPHIL,[2],66.67 CELLS/uL
same,ABSOLUTE LYMPHOCYTE,[2],9301.33 CELLS/uL
same,ABSOLUTE MONOCYTE,[2],105.67 CELLS/uL
same,ABSOLUTE SEGMENTED NEUTROPHIL,[2],1026.33 CELLS/uL
same,BASOPHIL,[2],0%
same,EOSINOPHIL,[2],0.67%
same,ERYTHROCYTE COUNT,[2],5.74 x10E6/uL
same,HEMATOCRIT,[2],35.87%
same,HEMOGLOBIN,[2],13.53 G/DL
same,LEUKOCYTE COUNT,[2],10.5 x10E3/uL
same,LYMPHOCYTE,[2],88.67%
same,MEAN CORPUSCULAR HEMOGLOBIN,[2],23.57 pg
same,MEAN CORPUSCULAR HEMOGLOBIN CONCENTRATION,[2],37.73 G/DL
same,MEAN CORPUSCULAR VOLUME,[2],62.5 fL
same,MONOCYTE,[2],1%
same,NEUTROPHIL,[2],9.67%
same,NUCLEATED RED BLOOD CELLS,[2],0.33 /100WBC
same,PLATELET COUNT,[2],1255.33 x10E3/uL
same,ALANINE AMINOTRANSFERASE,[2],45.67 u/L
same,ALBUMIN,[2],4.1 G/DL
same,ALKALINE PHOSPHATASE,[2],363 u/L
same,ASPARTATE AMINOTRANSFERASE,[2],88.67 u/L
same,BLOOD UREA NITROGEN,[2],15.67 mg/dL
same,CARBON DIOXIDE,[2],25 mmol/L
same,CHLORIDE,[2],106 MEQ/L
same,CHOLESTEROL,[2],63.67 mg/dL
same,CREATINE PHOSPHOKINASE,[2],400.33 u/L
same,CREATININE,[2],0.18 mg/dL
same,GLUCOSE,[2],177.67 mg/dL
same,LACTATE DEHYDROGENASE,[2],358 u/L
same,LIPASE,[2],8.33 u/L
same,PHOSPHORUS,[2],12.67 mg/dL
same,POTASSIUM,[2],6.28 MEQ/L
same,SODIUM,[2],144.83 MEQ/L
same,TOTAL BILIRUBIN,[2],0.23 mg/dL
same,TOTAL PROTEIN,[2],6.2 G/DL
same,ABSOLUTE BASOPHIL,[3],0 CELLS/uL
same,ABSOLUTE EOSINOPHIL,[3],219 CELLS/uL
same,ABSOLUTE LYMPHOCYTE,[3],13357.67 CELLS/uL
same,ABSOLUTE MONOCYTE,[3],239.33 CELLS/uL
same,ABSOLUTE SEGMENTED NEUTROPHIL,[3],1117.33 CELLS/uL
same,BASOPHIL,[3],0%
same,EOSINOPHIL,[3],1.33%
same,ERYTHROCYTE COUNT,[3],5.83 x10E6/uL
same,HEMATOCRIT,[3],36.57%
same,HEMOGLOBIN,[3],14.13 G/DL
same,LEUKOCYTE COUNT,[3],14.93 x10E3/uL
same,LYMPHOCYTE,[3],89.67%
same,MEAN CORPUSCULAR HEMOGLOBIN,[3],24.23 pg
same,MEAN CORPUSCULAR HEMOGLOBIN CONCENTRATION,[3],38.67 G/DL
same,MEAN CORPUSCULAR VOLUME,[3],62.73 fL
same,MONOCYTE,[3],1.67%
same,NEUTROPHIL,[3],7.33%
same,NUCLEATED RED BLOOD CELLS,[3],0 /100WBC
same,PLATELET COUNT,[3],1424 x10E3/uL
same,ALANINE AMINOTRANSFERASE,[3],46.67 u/L
same,ALBUMIN,[3],4.23 G/DL
same,ALKALINE PHOSPHATASE,[3],304.67 u/L
same,ASPARTATE AMINOTRANSFERASE,[3],92.33 u/L
same,BLOOD UREA NITROGEN,[3],15.67 mg/dL
same,CARBON DIOXIDE,[3],24.33 mmol/L
same,CHLORIDE,[3],110.67 MEQ/L
same,CHOLESTEROL,[3],46 mg/dL
same,CREATINE PHOSPHOKINASE,[3],383.33 u/L
same,CREATININE,[3],0.12 mg/dL
same,GLUCOSE,[3],104 mg/dL
same,LACTATE DEHYDROGENASE,[3],123 u/L
same,LIPASE,[3],7.67 u/L
same,PHOSPHORUS,[3],14.33 mg/dL
same,POTASSIUM,[3],5.64 MEQ/L
same,SODIUM,[3],148.07 MEQ/L
same,TOTAL BILIRUBIN,[3],0.1 mg/dL
same,TOTAL PROTEIN,[3],6.3 G/DL
same,ABSOLUTE BASOPHIL,[4],0 CELLS/uL
same,ABSOLUTE EOSINOPHIL,[4],118.67 CELLS/uL
same,ABSOLUTE LYMPHOCYTE,[4],15030.67 CELLS/uL
same,ABSOLUTE MONOCYTE,[4],170.67 CELLS/uL
same,ABSOLUTE SEGMENTED NEUTROPHIL,[4],1746.67 CELLS/uL
same,BASOPHIL,[4],0%
same,EOSINOPHIL,[4],0.67%
same,ERYTHROCYTE COUNT,[4],5.72 x10E6/uL
same,HEMATOCRIT,[4],35.6%
same,HEMOGLOBIN,[4],13.43 G/DL
same,LEUKOCYTE COUNT,[4],17.07 x10E3/uL
same,LYMPHOCYTE,[4],88%
same,MEAN CORPUSCULAR HEMOGLOBIN,[4],23.53 pg
same,MEAN CORPUSCULAR HEMOGLOBIN CONCENTRATION,[4],37.77 G/DL
same,MEAN CORPUSCULAR VOLUME,[4],62.37 fL
same,MONOCYTE,[4],1%
same,NEUTROPHIL,[4],10.33%
same,NUCLEATED RED BLOOD CELLS,[4],0 /100WBC
same,PLATELET COUNT,[4],1344.67 x10E3/uL
same,ALANINE AMINOTRANSFERASE,[4],49.67 u/L
same,ALBUMIN,[4],4.07 G/DL
same,ALKALINE PHOSPHATASE,[4],305 u/L
same,ASPARTATE AMINOTRANSFERASE,[4],80.33 u/L
same,BLOOD UREA NITROGEN,[4],13.67 mg/dL
same,CARBON DIOXIDE,[4],26.33 mmol/L
same,CHLORIDE,[4],105 MEQ/L
same,CHOLESTEROL,[4],52.33 mg/dL
same,CREATINE PHOSPHOKINASE,[4],250.33 u/L
same,CREATININE,[4],0.19 mg/dL
same,GLUCOSE,[4],172.67 mg/dL
same,LACTATE DEHYDROGENASE,[4],79 u/L
same,LIPASE,[4],8 u/L
same,PHOSPHORUS,[4],12.5 mg/dL
same,POTASSIUM,[4],6.34 MEQ/L
same,SODIUM,[4],144.67 MEQ/L
same,TOTAL BILIRUBIN,[4],0.13 mg/dL
same,TOTAL PROTEIN,[4],6.03 G/DL
